The source of these data is ChEMBL document CHEMBL1201862, “PubChem BioAssay data set” (2004).

Active and inactive are the calls of the source.

For experiment [1], the system named is INS1. Briefly: beta cell apoptosis inhibitors, cytokine rescue, dose response, luminescence, retest (AID 449756).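 Further: cell death triggered by IL-1 beta plus TNF-alpha plus IFN-gamma mixture; protective hits raise ATP signal compared with cytokine alone wells.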 The experiment is classed as functional, cell-based. As to conditions: Rattus norvegicus.
For experiment [2], the target named is Serine/threonine-protein phosphatase PP1-alpha catalytic subunit (Homo sapiens, UniProt P62136). The experiment in a line: PP1 phosphatase inhibitors, dose response, biochemical, fluorescence (AID 2403).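 Further: phosphatase turnover of OMFP into fluorescent 3-O-methylfluorescein.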
Sequence of Serine/threonine-protein phosphatase PP1-alpha catalytic subunit (P62136 whole entry): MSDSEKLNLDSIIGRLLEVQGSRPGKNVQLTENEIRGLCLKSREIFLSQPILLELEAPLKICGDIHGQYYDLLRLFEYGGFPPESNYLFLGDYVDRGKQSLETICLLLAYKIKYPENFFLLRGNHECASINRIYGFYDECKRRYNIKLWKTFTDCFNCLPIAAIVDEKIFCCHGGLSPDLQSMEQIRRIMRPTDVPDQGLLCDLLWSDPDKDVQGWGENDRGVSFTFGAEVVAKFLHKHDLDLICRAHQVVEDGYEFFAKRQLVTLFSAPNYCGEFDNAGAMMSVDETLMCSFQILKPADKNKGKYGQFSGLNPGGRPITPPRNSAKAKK
Experiment [3] can be described thus: HeLa cell cytotoxicity, dose response, cytotoxicity control, CellTiter-Glo luminescence, dry powder, set 2 (AID 720593). Format: functional, cell-based. Background: In ATP-based viability assays light output follows the ATP content of the culture.
Experiment [4] is described as follows: inhibitors of intracellular T. cruzi replication, confirmation, NIH3T3 host cells, beta-gal luminescence (AID 2044).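 Further: intracellular parasites grown in NIH/3T3 mouse fibroblasts as host cells; luminescent beta-galactosidase reporter signal from transgenic T. cruzi replicating inside host cells; inhibitors lower the luminescence signal.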 The experiment is classed as functional, cell-based.
The nature of experiment [5]: cells. Format: functional, cell-based.
The target of experiment [6] is Serine/threonine-protein phosphatase (Homo sapiens, UniProt Q9BPW0). The experiment in a line: Counterscreen for inhibitors of PP1: fluorescence-based biochemical high throughput dose response assay to identify inhibitors of Protein Phosphatase 5 (PP5). [Related pubchem assays: 2034 (Summary (PP5 inhibitors)), 1987 (PP5 inhibitors in singlate), 2235 (PP1 inhibitors in singlate)].
Sequence of Serine/threonine-protein phosphatase (Q9BPW0 whole entry): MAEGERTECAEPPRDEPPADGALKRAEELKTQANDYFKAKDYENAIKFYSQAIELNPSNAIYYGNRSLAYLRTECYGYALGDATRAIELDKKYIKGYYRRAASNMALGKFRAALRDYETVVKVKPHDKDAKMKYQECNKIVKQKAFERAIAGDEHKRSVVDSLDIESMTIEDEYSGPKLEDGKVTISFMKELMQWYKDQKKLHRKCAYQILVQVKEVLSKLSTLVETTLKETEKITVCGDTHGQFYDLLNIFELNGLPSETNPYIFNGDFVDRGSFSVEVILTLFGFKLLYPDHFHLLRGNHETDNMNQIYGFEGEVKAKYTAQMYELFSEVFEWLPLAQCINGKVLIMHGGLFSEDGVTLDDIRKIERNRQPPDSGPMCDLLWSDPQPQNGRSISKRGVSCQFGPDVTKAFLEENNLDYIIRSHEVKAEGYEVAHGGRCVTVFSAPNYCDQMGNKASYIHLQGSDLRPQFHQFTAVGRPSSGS

Experiment [7] can be described thus: cells. Format: functional, cell-based. The source holds these as a separate data set.
Experiment [8] deals with Streptococcus. Briefly: Group A Streptococcus viability loss, dose response, counter-screen for streptokinase expression inhibitor project, luminescence, BacTiterGlo (AID 1915).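 Further: potency for reduction of bacterial viability or growth.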 Format: functional, organism-based. For orientation: Counterscreens check selectivity or assay interference.
Experiment [9] has as its target Photoreceptor-specific nuclear receptor (Homo sapiens, UniProt Q9Y5X4). The experiment is classed as functional, cell-based.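 Further: CHO-S cells with Gal4-NCOR and VP16-NR2E3 two-hybrid luciferase reporter.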
The target in experiment [10] is Nonstructural protein 1 (Influenza A virus, UniProt Q194T2). The experiment is classed as functional, Influenza A virus (A/California/07/2009(H1N1)).
Sequence of Nonstructural protein 1 (Q194T2 whole entry): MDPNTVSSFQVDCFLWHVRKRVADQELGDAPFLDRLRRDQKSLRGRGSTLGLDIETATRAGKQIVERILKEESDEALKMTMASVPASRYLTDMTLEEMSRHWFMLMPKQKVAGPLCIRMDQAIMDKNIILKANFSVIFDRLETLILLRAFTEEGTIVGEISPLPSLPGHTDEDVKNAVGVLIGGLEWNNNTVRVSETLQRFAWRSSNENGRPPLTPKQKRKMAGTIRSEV
Experiment [11] relates to Streptococcus sp. 'group A'. The experiment in a line: growth inhibition of control SK(-) GAS strain, dose response, counter-screen for streptokinase expression inhibitor project, luminescence, kanamycin, BacTiterGlo, confirmation (AID 1900). Format: functional, organism-based.
The nature of experiment [12]: cytotoxicity toward NIH3T3 fibroblasts, dose response, counter-screen, cell-based, ATP luminescence, mouse fibroblasts (AID 2010).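 Further: cells exposed to compound for about 90 hours before reading.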 Format: functional.
The nature of experiment [13]: cells. The settings on record: A549.
Experiment [14] is described as follows: HepG2 cell cytotoxicity, dose response, cytotoxicity control, ATP luminescence, cherry-pick, set 6 (AID 1053125). The experiment is classed as functional, cell-based.
Experiment [15] addresses Large T antigen (Simian virus 40, UniProt P03070). The experiment is classed as functional, Betapolyomavirus macacae.
A short description of experiment [16]: cells. The settings on record: HEK293.
Experiment [17] is described as follows: cells.
The target in experiment [18] is Matrix metalloproteinase-14 (Homo sapiens, UniProt P50281). The experiment in a line: Dose Response confirmation of uHTS hits for a small molecule inhibitors of MT1-MMP activation in a fluorescence assay set 2. The experiment is classed as functional.
In experiment [19] the target is T1, Rac GTPase-activating protein 1 (Homo sapiens, UniProt Q9H0H5).
T1 sequence (Q9H0H5 whole entry): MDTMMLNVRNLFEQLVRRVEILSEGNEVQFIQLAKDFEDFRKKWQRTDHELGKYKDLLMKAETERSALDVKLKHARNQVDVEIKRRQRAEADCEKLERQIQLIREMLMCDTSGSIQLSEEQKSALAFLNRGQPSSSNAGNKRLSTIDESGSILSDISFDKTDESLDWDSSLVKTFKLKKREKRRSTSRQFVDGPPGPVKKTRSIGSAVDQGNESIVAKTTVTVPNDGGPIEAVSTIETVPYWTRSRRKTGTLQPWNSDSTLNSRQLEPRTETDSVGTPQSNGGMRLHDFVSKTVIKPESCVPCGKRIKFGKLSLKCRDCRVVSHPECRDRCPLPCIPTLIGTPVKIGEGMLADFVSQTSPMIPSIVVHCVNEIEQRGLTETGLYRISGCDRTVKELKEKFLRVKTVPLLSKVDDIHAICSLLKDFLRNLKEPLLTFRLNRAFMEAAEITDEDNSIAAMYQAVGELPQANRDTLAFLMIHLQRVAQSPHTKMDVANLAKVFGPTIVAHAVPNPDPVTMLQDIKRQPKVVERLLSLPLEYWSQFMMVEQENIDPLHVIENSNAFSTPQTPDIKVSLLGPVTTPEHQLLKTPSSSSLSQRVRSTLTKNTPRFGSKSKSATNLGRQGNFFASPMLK
Briefly: MgcRacGAP GTPase-activating activity inhibitors, confirmation, biochemical, ADP Hunter fluorescence, primary and confirmatory (AID 624330). Format: functional.

For experiment [20], the target named is Fructose-bisphosphate aldolase (Mycobacterium tuberculosis, UniProt P9WQA3). Briefly: Fluorescence-based biochemical high throughput dose response assay for inhibitors of the fructose-bisphosphate aldolase (FBA) of M. tuberculosis. The experiment is classed as functional.
Sequence of Fructose-bisphosphate aldolase (P9WQA3 whole entry): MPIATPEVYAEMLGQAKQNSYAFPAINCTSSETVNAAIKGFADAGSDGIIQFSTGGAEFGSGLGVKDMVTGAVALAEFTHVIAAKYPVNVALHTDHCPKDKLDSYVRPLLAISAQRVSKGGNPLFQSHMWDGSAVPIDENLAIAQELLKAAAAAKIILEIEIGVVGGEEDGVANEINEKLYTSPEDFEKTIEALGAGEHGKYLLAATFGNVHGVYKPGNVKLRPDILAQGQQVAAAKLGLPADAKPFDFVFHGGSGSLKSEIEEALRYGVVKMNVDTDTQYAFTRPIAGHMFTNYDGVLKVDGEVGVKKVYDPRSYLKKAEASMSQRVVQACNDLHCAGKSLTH
Experiment [21] is described as follows: reduction of Shn3 3'UTR firefly luciferase signal, dose response, Schnurri-3 inhibitor project, cell-based, Clone20 osteoblasts, cherry-pick, set 2 (AID 720490).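 Further: actives lower the luminescence signal as inhibitors.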 The experiment is classed as functional.
Experiment [22] in a line: Shn3 3'UTR reporter inhibitors, dose response, cell-based, Clone20 osteoblasts, firefly luciferase, cherry-picked (AID 624132).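 Further: firefly luciferase luminescence from reporter carrying the Shn3 3'UTR in osteoblasts.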 Format: functional.
Experiment [23] has as its target T2, Low molecular weight phosphotyrosine protein phosphatase (Homo sapiens, UniProt P24666).
T2 sequence (P24666 whole entry): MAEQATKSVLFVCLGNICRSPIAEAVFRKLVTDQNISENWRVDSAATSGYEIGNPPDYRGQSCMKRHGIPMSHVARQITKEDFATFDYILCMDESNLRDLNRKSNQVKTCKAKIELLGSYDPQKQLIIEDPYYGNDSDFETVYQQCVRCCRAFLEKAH
The experiment is classed as functional. The settings on record: read-out: IC50_Mean.

Experiment [24] in a line: control 3'UTR Renilla luciferase suppression, dose response, counter-screen for Shn3 inhibitor project, cell-based, Clone20-Shn3RL, cherry-picked (AID 624133). Format: functional.
A short description of experiment [25]: HepG2 cell cytotoxicity, dose response, cytotoxicity control for Shn3 inhibitor project, CellTiter-Glo, cherry-picked (AID 624134). The experiment is classed as functional, cell-based.
In experiment [26] the target is T2, Low molecular weight phosphotyrosine protein phosphatase. Format: functional. The settings on record: read-out: IC50_Mean. This is another data set of the same source.
Experiment [27] is described as follows: inhibitors of control Renilla luciferase reporter, dose response, counter-screen for Shn3 3'UTR targeting project, Clone20-Shn3RL cells, dual-Glo, cherry-pick, set 2 (AID 720724). The experiment is classed as functional, cell-based. As to conditions: Dual-Go Shn3RL. (Reporter assays use an easily measured gene product as a stand-in for the process of interest.)

Experiment [28] in a line: HEK293T cytotoxicity, dose response, cytotoxicity control for miR-122 modulator project, cell-based, activator set, cherry-pick (AID 720690).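 Further: HEK293T human cells scored for general mammalian cytotoxicity.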 The experiment is classed as functional.
A short description of experiment [29]: HEK293T cytotoxicity, dose response, cytotoxicity control for miR-122 modulator project, cell-based, inhibitor set, cherry-pick, set 2 (AID 720697). The experiment is classed as functional.
Experiment [30] can be described thus: miR-122 activators in hepatoma reporter cells, dose response, cell-based, Huh7 psiCHECK-miR122, Renilla luciferase, cherry-picked (AID 651956).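 Further: huh7 hepatoma cells stably carrying a psiCHECK-2 miR-122 sensor plasmid; renilla luciferase signal reporting endogenous miR-122 activity after 48 h compound exposure.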 The experiment is classed as functional.

Sequence of Large T antigen (P03070 whole entry): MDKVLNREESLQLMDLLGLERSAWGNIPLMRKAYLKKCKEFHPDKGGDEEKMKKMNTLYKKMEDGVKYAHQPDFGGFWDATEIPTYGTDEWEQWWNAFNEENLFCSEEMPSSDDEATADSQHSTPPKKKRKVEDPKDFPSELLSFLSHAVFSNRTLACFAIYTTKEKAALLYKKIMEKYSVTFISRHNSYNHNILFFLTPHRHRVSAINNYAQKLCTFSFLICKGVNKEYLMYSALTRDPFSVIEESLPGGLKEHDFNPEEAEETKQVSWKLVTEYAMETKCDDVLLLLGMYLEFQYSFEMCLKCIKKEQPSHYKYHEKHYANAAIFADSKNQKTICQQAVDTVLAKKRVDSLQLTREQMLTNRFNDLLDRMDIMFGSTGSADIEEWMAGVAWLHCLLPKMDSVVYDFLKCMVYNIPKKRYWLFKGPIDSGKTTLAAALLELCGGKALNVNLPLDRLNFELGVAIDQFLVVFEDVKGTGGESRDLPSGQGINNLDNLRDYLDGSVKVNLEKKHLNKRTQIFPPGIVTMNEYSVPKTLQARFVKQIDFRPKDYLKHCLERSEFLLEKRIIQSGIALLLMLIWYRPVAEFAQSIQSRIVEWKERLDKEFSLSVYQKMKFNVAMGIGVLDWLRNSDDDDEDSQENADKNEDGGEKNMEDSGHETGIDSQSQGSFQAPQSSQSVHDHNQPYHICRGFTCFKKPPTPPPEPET
Sequence of Photoreceptor-specific nuclear receptor (Q9Y5X4 whole entry, the tested form may be a part): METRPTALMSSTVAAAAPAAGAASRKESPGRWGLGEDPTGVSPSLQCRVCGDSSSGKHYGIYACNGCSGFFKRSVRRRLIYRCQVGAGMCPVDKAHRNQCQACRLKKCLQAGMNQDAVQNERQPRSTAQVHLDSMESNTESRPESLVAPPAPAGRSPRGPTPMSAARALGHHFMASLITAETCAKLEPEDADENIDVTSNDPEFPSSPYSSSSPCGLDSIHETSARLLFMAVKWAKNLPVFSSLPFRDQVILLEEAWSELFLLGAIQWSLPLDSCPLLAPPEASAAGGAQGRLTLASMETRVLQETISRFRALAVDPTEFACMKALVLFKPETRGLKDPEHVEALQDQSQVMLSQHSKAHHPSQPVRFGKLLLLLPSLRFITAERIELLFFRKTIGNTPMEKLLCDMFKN

Take `Nc1nc(-c2ccccn2)nc(N)c1Cc1ccc(Cl)cc1Cl`: the concentration at half-maximal activity (AC50) (commonly the concentration giving half of the maximal activity seen) in experiment [1] was 4.55 µM (active); in experiment [3], > 52 µM (inactive). For the same compound, the IC50 in experiment [2] was 8.64 µM (active); in [6], 47.5 µM (not active); in experiment [9] it was 4.53 µM (active); in experiment [10], 5.11 µM (active). Further, the EC50 (as a rule, the concentration at which the effect is half-maximal) is 1.26 µM (active) in experiment [4]; 13.9 µM (active) in [5]; > 350 µM (not active) in [7]; 13.5 µM (active) in experiment [8]; 3.52 µM (active) in experiment [11]; < 6 µM (inconclusive) in [12].

On to `O=C(c1ccccc1)N1CCN(c2ccc(NCc3ccc4c(c3)OCO4)cc2)CC1`, for which the results for the AC50 in experiment [13], in experiment [14] and in experiment [16] were > 52 µM (inactive), > 52 µM (inactive) and 20.2 µM (active), respectively. In addition, the IC50 in experiment [15] was > 100 µM (active).

Take `CCN(CC)CCNC(=O)c1sc2nc(-c3ccccc3)cn2c1C`: in experiment [17], the AC50 was 57 µM (active).

Turning to `CN(C)/C=C/c1oc2ccc(O)cc2c1[N+](=O)[O-]`, the IC50 in experiment [18] was 26.2 µM (inactive); in experiment [19], 14 µM (active).

With `Cc1ccc(-c2cnc(-c3ccccc3C(=O)O)o2)cc1`, in experiment [20], the IC50 was 0.919 µM (active).

Take `COCCNc1nc(NCc2ccc(C(C)C)cc2)c2sccc2n1`: the AC50 in [21] was 3 µM (active); in [22], 3.95 µM (active); in experiment [24], 17.5 µM (active); in [25], 47.4 µM (active); in experiment [27], 33.2 µM (active). In addition, the values for the IC50 in [23] and in [26] were 13 µM (active) and 24.5 µM (inactive), respectively.

As for `CN1C(=O)c2cc(NC(=O)c3ccc(C(F)(F)F)cc3)ccc2OC[C@H]2O[C@H](CC(=O)NCc3ccc4c(c3)OCO4)CC[C@H]21`, the figures for the AC50 in [28], in experiment [29] and in experiment [30] were 28.4 µM (active), 0.571 µM (active) and 12.3 µM (active), respectively.
